{
  "source": "patent US20250057912A1",
  "about": "“Compounds” (priority 2021, published 2025)",
  "key": {"[1]": {"experiment": "Pharmacokinetic characterisation in Beagle dogs, single s.c. injection, dose range (Example 6)", "assay_type": "in vivo", "settings": "male, plasma, dog, SC", "source_text": "The dosing vehicle was PBS buffer, pH 7."}, "[2]": {"target": "T1, α4β7 RPMI8866/MAdCAM-1 adhesion (Homo sapiens, UniProt P13612+P26010)", "T1 construct": "CFSE-labelled RPMI 8866 cells were added to the plate coated with rhMAdCAM-1; host or cells: RPMI 8866", "T1 sequence (P13612 34-1032)": "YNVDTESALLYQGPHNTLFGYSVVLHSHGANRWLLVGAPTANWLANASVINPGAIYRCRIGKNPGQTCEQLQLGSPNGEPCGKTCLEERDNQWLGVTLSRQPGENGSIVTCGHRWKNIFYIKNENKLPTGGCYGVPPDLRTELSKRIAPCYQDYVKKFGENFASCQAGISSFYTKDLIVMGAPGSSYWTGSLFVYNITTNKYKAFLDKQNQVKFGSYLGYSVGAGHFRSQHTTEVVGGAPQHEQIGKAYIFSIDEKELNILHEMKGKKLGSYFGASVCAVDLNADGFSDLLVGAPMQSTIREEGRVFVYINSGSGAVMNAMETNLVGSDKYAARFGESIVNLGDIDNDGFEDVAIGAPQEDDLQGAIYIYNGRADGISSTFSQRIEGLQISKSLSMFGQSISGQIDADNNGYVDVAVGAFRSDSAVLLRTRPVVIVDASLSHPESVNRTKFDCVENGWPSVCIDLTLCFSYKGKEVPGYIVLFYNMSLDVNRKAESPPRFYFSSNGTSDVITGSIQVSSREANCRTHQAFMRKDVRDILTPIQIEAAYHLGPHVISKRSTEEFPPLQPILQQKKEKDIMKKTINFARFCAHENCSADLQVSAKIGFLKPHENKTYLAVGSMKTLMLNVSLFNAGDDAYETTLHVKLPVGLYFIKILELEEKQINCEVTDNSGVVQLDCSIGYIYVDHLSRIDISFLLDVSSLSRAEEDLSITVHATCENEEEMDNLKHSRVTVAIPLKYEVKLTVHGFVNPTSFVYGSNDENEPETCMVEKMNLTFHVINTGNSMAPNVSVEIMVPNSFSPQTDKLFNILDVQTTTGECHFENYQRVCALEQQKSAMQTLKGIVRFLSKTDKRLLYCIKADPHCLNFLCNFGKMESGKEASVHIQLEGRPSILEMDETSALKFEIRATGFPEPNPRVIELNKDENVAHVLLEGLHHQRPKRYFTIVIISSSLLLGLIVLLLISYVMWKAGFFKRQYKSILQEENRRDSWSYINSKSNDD", "T1 sequence (P26010 20-798)": "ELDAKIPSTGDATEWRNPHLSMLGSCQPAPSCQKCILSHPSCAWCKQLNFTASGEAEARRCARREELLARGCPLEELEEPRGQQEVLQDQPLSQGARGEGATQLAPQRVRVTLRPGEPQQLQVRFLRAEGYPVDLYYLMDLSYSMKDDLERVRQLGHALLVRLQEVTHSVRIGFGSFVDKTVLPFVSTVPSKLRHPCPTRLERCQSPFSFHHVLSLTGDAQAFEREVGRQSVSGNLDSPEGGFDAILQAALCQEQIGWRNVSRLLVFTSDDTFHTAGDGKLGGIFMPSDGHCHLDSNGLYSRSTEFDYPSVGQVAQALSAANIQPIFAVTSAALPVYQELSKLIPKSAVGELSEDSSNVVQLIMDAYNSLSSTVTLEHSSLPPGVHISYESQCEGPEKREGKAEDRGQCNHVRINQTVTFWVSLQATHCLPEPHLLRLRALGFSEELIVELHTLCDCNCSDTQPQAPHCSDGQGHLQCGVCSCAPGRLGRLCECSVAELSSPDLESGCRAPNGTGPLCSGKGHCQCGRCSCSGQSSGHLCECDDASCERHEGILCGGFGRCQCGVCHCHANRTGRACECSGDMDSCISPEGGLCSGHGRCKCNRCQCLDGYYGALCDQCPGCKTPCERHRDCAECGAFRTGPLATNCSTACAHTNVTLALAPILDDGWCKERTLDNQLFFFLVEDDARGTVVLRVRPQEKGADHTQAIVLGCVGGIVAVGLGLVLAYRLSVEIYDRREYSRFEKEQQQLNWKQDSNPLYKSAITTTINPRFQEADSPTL", "experiment": "Integrin α4β7-MAdCAM cell adhesion assay, RPMI8866 cells (Example 7)", "assay_type": "cell-based", "quoted_text": "The cells were pelleted by centrifugation and resuspended in fresh pre-warmed complete culture medium and the cells were counted. […]"}, "[3]": {"target": "T2, α4β1 RAMOS/VCAM-1 adhesion (Homo sapiens, UniProt P05556+P13612)", "T2 construct": "host or cells: RAMOS", "T2 sequence (P05556 21-798, one chain of several)": "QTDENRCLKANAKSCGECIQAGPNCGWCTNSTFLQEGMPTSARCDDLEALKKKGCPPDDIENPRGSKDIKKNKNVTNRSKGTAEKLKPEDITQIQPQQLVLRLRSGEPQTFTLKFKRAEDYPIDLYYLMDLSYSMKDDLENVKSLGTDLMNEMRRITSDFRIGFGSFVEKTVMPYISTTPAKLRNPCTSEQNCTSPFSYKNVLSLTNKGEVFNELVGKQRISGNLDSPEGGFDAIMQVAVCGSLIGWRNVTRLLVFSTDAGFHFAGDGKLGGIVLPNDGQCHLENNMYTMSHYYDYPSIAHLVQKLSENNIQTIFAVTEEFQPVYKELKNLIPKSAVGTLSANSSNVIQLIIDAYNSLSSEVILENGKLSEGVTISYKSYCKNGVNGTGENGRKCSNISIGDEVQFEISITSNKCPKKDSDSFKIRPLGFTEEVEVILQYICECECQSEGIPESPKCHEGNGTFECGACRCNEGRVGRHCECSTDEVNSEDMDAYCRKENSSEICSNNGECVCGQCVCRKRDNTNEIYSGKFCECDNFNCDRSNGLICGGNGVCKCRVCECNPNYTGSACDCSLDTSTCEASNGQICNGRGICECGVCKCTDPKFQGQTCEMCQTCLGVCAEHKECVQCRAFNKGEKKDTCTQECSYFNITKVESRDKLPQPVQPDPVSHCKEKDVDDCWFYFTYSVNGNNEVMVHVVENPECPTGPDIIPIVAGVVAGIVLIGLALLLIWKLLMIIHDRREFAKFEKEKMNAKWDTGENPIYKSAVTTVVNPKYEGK", "experiment": "Integrin α4β1-VCAM-1 cell adhesion assay, RAMOS cells (Example 7)", "assay_type": "cell-based", "settings": "rhVCAM-1 coated plate, DMEM binding buffer", "protocol": "The human B lymphocyte cell line RAMOS was obtained from the Zealand Pharma culture collection.\nCompound 1 and Comparative compounds 1 and 2 were reconstituted in DMSO to a concentration of 10 mM.\nCFSE-labelled RPMI 8866 cells were added to the plate coated with rhMAdCAM-1 and CFSE-labelled RAMOS cells were added to the plate coated with rhVCAM-1.\nAfter incubation, unbound cells were washed away. The cell plates were emptied by inverting and residues of liquid were removed by blotting on paper towel."}},
  "data": [
    {"smiles": "CC[C@H](C)[C@@H]1NC(=O)[C@H](CC(=O)O)NC(=O)[C@H](CC(C)C)NC(=O)c2ccc(-c3ccc(N4CCN(C(=O)c5ccccc5-c5ccccc5C(=O)N5CCN(c6ccc(-c7ccc8cc7CNC(=O)[C@@H]7CCCN7[C@H](C(=O)NC(C)(C)C)[C@H](C)NC(=O)[C@H]([C@@H](C)CC)NC(=O)[C@H](CC(=O)O)NC(=O)[C@H](CC(C)C)NC8=O)cc6)CC5)CC4)cc3)c(c2)CNC(=O)[C@@H]2CCCN2[C@H](C(=O)NC(C)(C)C)[C@H](C)NC1=O", "note": "[Compound 1]", "values": [
      {"measurement": "AUC", "setting": "[1]; 10 ug/kg", "result": 2.46, "unit": "µM·h"},
      {"measurement": "AUC", "setting": "[1]; 20 ug/kg", "result": 5.68, "unit": "µM·h"},
      {"measurement": "AUC", "setting": "[1]; 50 ug/kg", "result": 11.6, "unit": "µM·h"},
      {"measurement": "AUC", "setting": "[1]; 100 ug/kg", "result": 58.6, "unit": "µM·h"},
      {"measurement": "AUC", "setting": "[1]; 200 ug/kg", "result": 72.5, "unit": "µM·h"},
      {"measurement": "AUC", "setting": "[1]; 400 ug/kg", "result": 158, "unit": "µM·h"},
      {"measurement": "IC50", "setting": "[2]; RPMI 8866 cells, rhMAdCAM-1 coated plate, DMEM binding buffer", "result": 7.2, "unit": "nM"},
      {"measurement": "Selectivity ratio", "setting": "[2]; α4β1 RAMOS/VCAM-1 IC50 versus α4β7 RPMI8866/MAdCAM-1 IC50", "result": 16.0},
      {"measurement": "IC50", "setting": "[3]", "result": 115, "unit": "nM"}
    ]}
  ]
}
